Test results published in patent US20180200257A1, “METHODS FOR THE TREATMENT OF INFLAMMATORY DISORDERS” (Galapagos NV, priority 2015, published 2018).

System: subjects with moderately to severely active RA who have an inadequate response to methotrexate (MTX)
Test: Study 2 (monotherapy) - Aspartate Aminotransferase (AST) levels
Assay type: in vivo, human
Text: Randomized, double-blind, placebo-controlled, multicenter, phase IIb dose finding study of Compound 1 (dosed as a [Compound 1:HCl:3H2O]) administered for 24 weeks as monotherapy to subjects with moderately to severely active rheumatoid arthritis who have an inadequate response to methotrexate alone
Double-blind, placebo-controlled, monotherapy study in subjects with moderately to severely active RA who have an inadequate response to methotrexate (MTX) (oral or parenteral).
280 subjects randomized to one of 3 doses of Compound 1 (dosed as a [Compound 1:HCl:3H2O]) or to placebo, given once daily (q.d.).
Twelve weeks of treatment with Compound 1 (dosed as a [Compound 1:HCl:3H2O]) at 50 mg, 100 mg, or 200 mg q.d.; or placebo. At Week 12, all subjects on placebo and the subjects on the 50 mg dose who have not achieved 20% improvement in swollen joint count (SJC66) and tender joint count (TJC68) will be assigned to 100 mg q.d. in a blinded fashion and will continue treatment until Week 24. Subjects in the other groups will maintain their randomized treatment until Week 24.
AST levels determination is available at Quest Diagnostics, Clinical Trials, Quest House, 125-135 Staines Road, Hounslow, Middlesex, TW3 3JB, United Kingdom under Catalogue n#84450. For Study 3, the data are obtained at BARC Europe, 3B,Industrie Park, Zwijnaarde, B-9052 Ghent, Belgium.
AST catalyzes the transamination of aspartate and 2-oxoglutarate, forming L-glutamate and oxalacetate. The oxalacetate is reduced to L-malate by malate dehydrogenase, whilst NADH is converted to NAD+, measured spectrophotometrically. Guidelines for the AST value have been issued by the association for Clinical Biochemistry and Laboratory Medicine, 130-132 Tooley Street LONDON SE1 2TU, united Kingdom, wherein the AST value should be below 34 U/l in Female and below 45 U/L in male. As disclosed in the respective study protocols for Study 1 or 2, at week 12, depending on the outcome of their treatment, the subjects may be continued in their initial treatment course, or reassigned to another treatment group in a randomized blinded fashion until week 24. Therefore, the number of subjects (N) for the period of either 12 weeks, or 24 weeks is provided to reflect this redistribution at week 12.
Subjects in the other groups maintained their randomized treatment until Week 24.

[1] = 12 weeks results, 50 mg q.d., week 1
[2] = 12 weeks results, 50 mg q.d., week 2
[3] = 12 weeks results, 50 mg q.d., week 4
[4] = 12 weeks results, 50 mg q.d., week 8
[5] = 12 weeks results, 50 mg q.d., week 12
[6] = 12 weeks results, 100 mg q.d., week 1
[7] = 12 weeks results, 100 mg q.d., week 2
[8] = 12 weeks results, 100 mg q.d., week 4
[9] = 12 weeks results, 100 mg q.d., week 8
[10] = 12 weeks results, 100 mg q.d., week 12
[11] = 12 weeks results, 200 mg q.d., week 1
[12] = 12 weeks results, 200 mg q.d., week 2
[13] = 12 weeks results, 200 mg q.d., week 4
[14] = 12 weeks results, 200 mg q.d., week 8
[15] = 12 weeks results, 200 mg q.d., week 12
[16] = 24 weeks results, 50 mg q.d. non responders switching to 100 mg q.d. at week 12, week 1
[17] = 24 weeks results, 50 mg q.d. non responders switching to 100 mg q.d. at week 12, week 2
[18] = 24 weeks results, 50 mg q.d. non responders switching to 100 mg q.d. at week 12, week 4
[19] = 24 weeks results, 50 mg q.d. non responders switching to 100 mg q.d. at week 12, week 8
[20] = 24 weeks results, 50 mg q.d. non responders switching to 100 mg q.d. at week 12, week 12
[21] = 24 weeks results, 50 mg q.d. non responders switching to 100 mg q.d. at week 12, week 16
[22] = 24 weeks results, 50 mg q.d. non responders switching to 100 mg q.d. at week 12, week 20
[23] = 24 weeks results, 50 mg q.d. non responders switching to 100 mg q.d. at week 12, week 24
[24] = 24 weeks results, 50 mg q.d. responders, week 1
[25] = 24 weeks results, 50 mg q.d. responders, week 2
[26] = 24 weeks results, 50 mg q.d. responders, week 4
[27] = 24 weeks results, 50 mg q.d. responders, week 8
[28] = 24 weeks results, 50 mg q.d. responders, week 12
[29] = 24 weeks results, 50 mg q.d. responders, week 16
[30] = 24 weeks results, 50 mg q.d. responders, week 20
[31] = 24 weeks results, 50 mg q.d. responders, week 24
[32] = 24 weeks results, 100 mg q.d., week 1
[33] = 24 weeks results, 100 mg q.d., week 2
[34] = 24 weeks results, 100 mg q.d., week 4
[35] = 24 weeks results, 100 mg q.d., week 8
[36] = 24 weeks results, 100 mg q.d., week 12
[37] = 24 weeks results, 100 mg q.d., week 16
[38] = 24 weeks results, 100 mg q.d., week 20
[39] = 24 weeks results, 100 mg q.d., week 24
[40] = 24 weeks results, 200 mg q.d., week 1
[41] = 24 weeks results, 200 mg q.d., week 2
[42] = 24 weeks results, 200 mg q.d., week 4
[43] = 24 weeks results, 200 mg q.d., week 8
[44] = 24 weeks results, 200 mg q.d., week 12
[45] = 24 weeks results, 200 mg q.d., week 16
[46] = 24 weeks results, 200 mg q.d., week 20
[47] = 24 weeks results, 200 mg q.d., week 24
[48] = 24 weeks results, placebo switching to 100 mg q.d. at week 12, week 16
[49] = 24 weeks results, placebo switching to 100 mg q.d. at week 12, week 20
[50] = 24 weeks results, placebo switching to 100 mg q.d. at week 12, week 24

O=C(Nc1nc2cccc(-c3ccc(CN4CCS(=O)(=O)CC4)cc3)n2n1)C1CC1 [Compound 1, cyclopropanecarboxylic acid {5-[4-(1,1-dioxo-thiomorpholin-4-ylmethyl)-phenyl]-[1,2,4]triazolo[1,5-a]pyridin-2-yl}-amide]
Study 2 - AST Mean CFB [1]: −1.8 IU/L
Study 2 - AST Mean percentage CFB [1]: 0.54%
Study 2 - AST Mean CFB [2]: −2.0 IU/L
Study 2 - AST Mean percentage CFB [2]: 1.54%
Study 2 - AST Mean CFB [3]: −1.7 IU/L
Study 2 - AST Mean percentage CFB [3]: −0.21%
Study 2 - AST Mean CFB [4]: −2.5 IU/L
Study 2 - AST Mean percentage CFB [4]: −0.42%
Study 2 - AST Mean CFB [5]: −0.2 IU/L
Study 2 - AST Mean percentage CFB [5]: 2.69%
Study 2 - AST Mean CFB [6]: 0.4 IU/L
Study 2 - AST Mean percentage CFB [6]: 8.99%
Study 2 - AST Mean CFB [7]: 1.3 IU/L
Study 2 - AST Mean percentage CFB [7]: 9.02%
Study 2 - AST Mean CFB [8]: 1.3 IU/L
Study 2 - AST Mean percentage CFB [8]: 15.05%
Study 2 - AST Mean CFB [9]: 1.9 IU/L
Study 2 - AST Mean percentage CFB [9]: 18.05%
Study 2 - AST Mean CFB [10]: 1.9 IU/L
Study 2 - AST Mean percentage CFB [10]: 16.02%
Study 2 - AST Mean CFB [11]: 0.1 IU/L
Study 2 - AST Mean percentage CFB [11]: 7.59%
Study 2 - AST Mean CFB [12]: 0.9 IU/L
Study 2 - AST Mean percentage CFB [12]: 11.22%
Study 2 - AST Mean CFB [13]: 0.8 IU/L
Study 2 - AST Mean percentage CFB [13]: 13.13%
Study 2 - AST Mean CFB [14]: 1.4 IU/L
Study 2 - AST Mean percentage CFB [14]: 16.67%
Study 2 - AST Mean CFB [15]: 1.1 IU/L
Study 2 - AST Mean percentage CFB [15]: 15.21%
Study 2 - AST Mean CFB [16]: −0.4 IU/L
Study 2 - AST Mean percentage CFB [16]: −1.15%
Study 2 - AST Mean CFB [17]: 0.3 IU/L
Study 2 - AST Mean percentage CFB [17]: 2.57%
Study 2 - AST Mean CFB [18]: 0.3 IU/L
Study 2 - AST Mean percentage CFB [18]: 2.84%
Study 2 - AST Mean CFB [19]: 0.0 IU/L
Study 2 - AST Mean percentage CFB [19]: 1.89%
Study 2 - AST Mean CFB [20]: 0.8 IU/L
Study 2 - AST Mean percentage CFB [20]: 7.36%
Study 2 - AST Mean CFB [21]: 0.8 IU/L
Study 2 - AST Mean percentage CFB [21]: 5.82%
Study 2 - AST Mean CFB [22]: 1.8 IU/L
Study 2 - AST Mean percentage CFB [22]: 13.66%
Study 2 - AST Mean CFB [23]: 2.6 IU/L
Study 2 - AST Mean percentage CFB [23]: 17.42%
Study 2 - AST Mean CFB [24]: −2.1 IU/L
Study 2 - AST Mean percentage CFB [24]: 0.98%
Study 2 - AST Mean CFB [25]: −2.6 IU/L
Study 2 - AST Mean percentage CFB [25]: 1.26%
Study 2 - AST Mean CFB [26]: −2.3 IU/L
Study 2 - AST Mean percentage CFB [26]: −1.03%
Study 2 - AST Mean CFB [27]: −3.2 IU/L
Study 2 - AST Mean percentage CFB [27]: −1.06%
Study 2 - AST Mean CFB [28]: −0.5 IU/L
Study 2 - AST Mean percentage CFB [28]: 1.37%
Study 2 - AST Mean CFB [29]: 0.5 IU/L
Study 2 - AST Mean percentage CFB [29]: 8.81%
Study 2 - AST Mean CFB [30]: 0.5 IU/L
Study 2 - AST Mean percentage CFB [30]: 7.58%
Study 2 - AST Mean CFB [31]: −0.5 IU/L
Study 2 - AST Mean percentage CFB [31]: 5.14%
Study 2 - AST Mean CFB [32]: 0.4 IU/L
Study 2 - AST Mean percentage CFB [32]: 8.99%
Study 2 - AST Mean CFB [33]: 1.3 IU/L
Study 2 - AST Mean percentage CFB [33]: 9.02%
Study 2 - AST Mean CFB [34]: 1.3 IU/L
Study 2 - AST Mean percentage CFB [34]: 15.05%
Study 2 - AST Mean CFB [35]: 1.9 IU/L
Study 2 - AST Mean percentage CFB [35]: 18.05%
Study 2 - AST Mean CFB [36]: 1.9 IU/L
Study 2 - AST Mean percentage CFB [36]: 16.02%
Study 2 - AST Mean CFB [37]: 5.4 IU/L
Study 2 - AST Mean percentage CFB [37]: 23.15%
Study 2 - AST Mean CFB [38]: 2.4 IU/L
Study 2 - AST Mean percentage CFB [38]: 23.16%
Study 2 - AST Mean CFB [39]: 1.5 IU/L
Study 2 - AST Mean percentage CFB [39]: 15.75%
Study 2 - AST Mean CFB [40]: 0.1 IU/L
Study 2 - AST Mean percentage CFB [40]: 7.59%
Study 2 - AST Mean CFB [41]: 0.9 IU/L
Study 2 - AST Mean percentage CFB [41]: 11.22%
Study 2 - AST Mean CFB [42]: 0.8 IU/L
Study 2 - AST Mean percentage CFB [42]: 13.13%
Study 2 - AST Mean CFB [43]: 1.4 IU/L
Study 2 - AST Mean percentage CFB [43]: 16.67%
Study 2 - AST Mean CFB [44]: 1.1 IU/L
Study 2 - AST Mean percentage CFB [44]: 15.21%
Study 2 - AST Mean CFB [45]: 2.2 IU/L
Study 2 - AST Mean percentage CFB [45]: 21.14%
Study 2 - AST Mean CFB [46]: 1.7 IU/L
Study 2 - AST Mean percentage CFB [46]: 17.43%
Study 2 - AST Mean CFB [47]: 1.4 IU/L
Study 2 - AST Mean percentage CFB [47]: 17.74%
Study 2 - AST Mean CFB [48]: 0.9 IU/L
Study 2 - AST Mean percentage CFB [48]: 8.60%
Study 2 - AST Mean CFB [49]: 2.2 IU/L
Study 2 - AST Mean percentage CFB [49]: 16.10%
Study 2 - AST Mean CFB [50]: 2.1 IU/L
Study 2 - AST Mean percentage CFB [50]: 13.64%
